According to US11633413B2, “Composition for preventing or improving menopausal symptom comprising novel ginsenoside” (AMOREPACIFIC CORPORATION, priority 2019, dated 2023):
Entries after “also recorded” stand apart in the source; their conditions may differ.

How the values were obtained:
Type in all cases: cell-based
estrogen receptor ERα = biological target: T1, estrogen receptor ERα (Homo sapiens, UniProt P03372); assay: human ERα reporter assay (ERE-luc, Indigo Bioscience #IB00421-48P); details: for activity of ERα: Test Example 3, same manner as Test Example 1, FIG. 16; for increase of the activity of the estrogen receptor ERα: Test Example 1, 10 μg/mL for 24 hours, FIG. 11, FIG. 14
T1 sequence (P03372 1-595): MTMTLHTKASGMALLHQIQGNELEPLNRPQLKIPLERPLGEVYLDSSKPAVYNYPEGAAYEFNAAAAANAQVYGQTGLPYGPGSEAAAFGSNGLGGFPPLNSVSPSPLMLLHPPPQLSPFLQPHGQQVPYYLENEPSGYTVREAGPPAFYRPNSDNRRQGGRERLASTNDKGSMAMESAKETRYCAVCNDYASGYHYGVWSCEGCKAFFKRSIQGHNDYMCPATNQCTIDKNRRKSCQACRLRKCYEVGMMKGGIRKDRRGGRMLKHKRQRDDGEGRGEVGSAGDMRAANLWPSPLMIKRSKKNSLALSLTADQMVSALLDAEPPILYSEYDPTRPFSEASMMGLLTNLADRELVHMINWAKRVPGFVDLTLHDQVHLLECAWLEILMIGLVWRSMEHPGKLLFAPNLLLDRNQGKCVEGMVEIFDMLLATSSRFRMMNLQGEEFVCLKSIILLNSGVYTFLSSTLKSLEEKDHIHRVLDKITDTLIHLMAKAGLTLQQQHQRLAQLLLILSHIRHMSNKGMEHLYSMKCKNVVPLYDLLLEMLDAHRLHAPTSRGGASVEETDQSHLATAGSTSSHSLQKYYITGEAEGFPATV
Experimental: (§1) After treating each of the novel ginsenoside GS #10 according to an exemplary embodiment of the present disclosure and other ginsenosides GS #01 to GS #06 isolated from the ginseng seed extract with a human ERα/β reporter assay panel (#IB00421-48P; Indigo Bioscience) at a concentration of 10 μg/mL for 24 hours, the increase of the activity of the estrogen receptors ERα and ERβ was analyzed. The #IB00421-48P kit comprises cells in which ERα and ERβ are overexpressed, respectively, and comprises the ERE-luc reporter gene. If the activity of the ER is increased by treating with the example or a comparative example, ERα and ERβ bind to ERE, thereby inducing the expression of luciferase. Therefore, the activity of ERα and ERβ can be measured by measuring the light intensity of the cells. As the comparative example, a methanol extract of ginseng seed (seeds of Panax ginseng) used for the isolation of the ginsenosides in Example 1 was used.
(§2) It is reported that, although the increased activity of the estrogen receptors ERα and ERβ can lead to alleviation of menopausal symptoms, ERs are overexpressed in more than 70% of breast cancer cells, mainly due to increased ERα (ESR1) (see Deroo B J et al., J Clin Invest 116:561 (2006)).
(§3) The effect of preventing or improving menopausal symptoms of the novel ginsenoside […] according to an exemplary embodiment of the present disclosure was compared with that of ginsenosides Rg1, Rg3 and Rb1 (purchased from Sigma), which are red ginseng marker compounds, as comparative examples. Ginsenoside Rg3 has the following chemical structure. The experiment was performed in the same manner as in Test Example 1.

[1] = tested on: MCF-7 breast cancer cells; assay: growth of MCF-7 breast cancer cells (cell counting); details: 10 μg/mL for 48 hours; number of cells counted; FIG. 15
estrogen receptor ERβ = estrogen receptor ERβ (Homo sapiens, UniProt Q92731); assay: human ERβ reporter assay (ERE-luc, Indigo Bioscience #IB00421-48P); details: for activity of ERβ: same manner as Test Example 1
estrogen receptor ERβ, sequence (Q92731 whole entry): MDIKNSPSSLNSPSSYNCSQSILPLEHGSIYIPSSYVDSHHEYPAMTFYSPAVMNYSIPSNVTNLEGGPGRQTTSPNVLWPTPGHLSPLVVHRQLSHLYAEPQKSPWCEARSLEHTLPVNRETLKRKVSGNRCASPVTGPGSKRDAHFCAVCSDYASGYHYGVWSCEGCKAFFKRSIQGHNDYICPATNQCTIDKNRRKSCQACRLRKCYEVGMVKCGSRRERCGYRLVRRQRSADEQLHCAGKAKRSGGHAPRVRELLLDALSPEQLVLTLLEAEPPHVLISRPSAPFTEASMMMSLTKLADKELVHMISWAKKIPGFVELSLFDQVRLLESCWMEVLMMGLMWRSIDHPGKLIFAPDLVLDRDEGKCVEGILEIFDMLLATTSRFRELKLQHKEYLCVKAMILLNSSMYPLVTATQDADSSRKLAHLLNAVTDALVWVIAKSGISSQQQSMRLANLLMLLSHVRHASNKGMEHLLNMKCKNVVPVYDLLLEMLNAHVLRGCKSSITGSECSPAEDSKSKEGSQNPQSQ
Experimental: as §1, §2, §3

SH-SY5Y cells = assay: cytotoxicity, cell counting kit (CCK-8); details: 0.1, 1, 5, 10, 20 and 50 μM, FIG. 18
Experimental: Cell growth in the presence of the novel ginsenoside GS #10 according to an exemplary embodiment of the present disclosure was evaluated using a cell counting kit (CCK-8) in order to exclude the possibility that the ginsenoside may affect the effect of preventing or improving menopausal symptoms through cytotoxic activity. The experimental method is as follows.
10 μL of a CCK-8 reagent was added to SH-SY5Y cells (Dojindo, Md., USA) in a 96-well plate and left at 37° C. for 2 hours. Then, absorbance was measured at 450 nm. Cell viability was represented as the percentage (%) of the absolute optical density of each sample relative to an untreated sample. The concentration of the novel ginsenoside GS #10 according to an exemplary embodiment of the present disclosure in the medium in which the cells were cultured was 0.1, 1, 5, 10, 20 and 50 μM, respectively.

| Compound | activity of ERα (estrogen receptor ERα) | growth of MCF-7 breast cancer cells (side effect of promoting cancer cell growth) [1] | increase of the activity of the estrogen receptor ERα (estrogen receptor ERα) | activity of ERβ (estrogen receptor ERβ; Test Example 3, FIG. 17) | also measured |
| --- | --- | --- | --- | --- | --- |
| CC(C)=CCC[C@](C)(O[C@@H]1O[C@H](CO)[C@@H](O)[C@H](O)[C@H]1O)[C@H]1CC[C@]2(C)[C@@H]1[C@H](O)C[C@@H]1[C@@]3(C)CC[C@H](O)C(C)(C)[C@@H]3[C@@H](O[C@@H]3O[C@H](CO)[C@@H](O)[C@H](O)[C@H]3O)C[C@]12C [GS #01, ginsenoside Rg1] | activated the estrogen receptors to some extent | – | – | – | – |
| C[C@]12CC[C@@H]3c4ccc(O)cc4CC[C@H]3[C@@H]1CC[C@@H]2O [17β-estradiol, 17β-Estradiol, reference compound] | – | promoted the growth of the breast cancer cells | – | – | – |
| CC(C)=CCC[C@](C)(O[C@@H]1O[C@H](CO)[C@@H](O)[C@H](O)[C@H]1O)[C@H]1CC[C@]2(C)[C@@H]1[C@H](O)C[C@@H]1[C@@]3(C)CC[C@H](O)C(C)(C)[C@@H]3[C@@H](O[C@@H]3O[C@H](CO)[C@@H](O)[C@H](O)[C@H]3O[C@@H]3O[C@@H](C)[C@H](O)[C@@H](O)[C@H]3O)C[C@]12C [GS #03, ginsenoside Re] | – | – | slightly increased the activity of ERα | – | – |
| CC1(C)C(=O)CC[C@@]2(C)C1[C@@H](O[C@H]1OC(CO)[C@H](O)C(O)C1O[C@H]1OC(CO)[C@H](O)C(O)C1O)C[C@]1(C)C2C[C@@H](O)C2C([C@]3(C)CC[C@H](C(C)(C)O)O3)CC[C@]21C (stereo partly drawn) [GS #10, (20S,24R)-6-O-β-D-glucopyranosyl(1→2)-β-D-glucopyranoside-dammar-3-one-20,24-epoxy-6a,12b,25-triol] | not higher than Rg1 and Rb1 | did not show such a side effect | slightly increased the activity of ERα; also recorded: had an effect of increasing the activity | 136% | increase of the activity of the estrogen receptor ERβ (estrogen receptor ERβ; Test Example 1, 10 μg/mL for 24 hours, FIG. 12, FIG. 14): activated ERβ; also recorded: had an effect of increasing the activity; activity ratio of ERβ to ERα compared with red ginseng marker compounds (estrogen receptor ERβ; Test Example 3, FIG. 16 and FIG. 17): higher than the ginsenosides Rb1, Rg1 and Rg3; activity of ERβ as compared to the ginsenosides Rg1 and Rb1 (estrogen receptor ERβ; Test Example 3, FIG. 17): at least 3 times; cytotoxicity (cell viability) (SH-SY5Y cells): did not exhibit cytotoxicity up to 50 μM |
| CC(C)=CCC[C@](C)(O[C@@H]1O[C@H](CO[C@@H]2O[C@H](CO)[C@@H](O)[C@H](O)[C@H]2O)[C@@H](O)[C@H](O)[C@H]1O)[C@H]1CC[C@]2(C)[C@@H]1[C@H](O)C[C@@H]1[C@@]3(C)CC[C@H](O[C@@H]4O[C@H](CO)[C@@H](O)[C@H](O)[C@H]4O[C@@H]4O[C@H](CO)[C@@H](O)[C@H](O)[C@H]4O)C(C)(C)[C@@H]3CC[C@]12C [GS #05, ginsenoside Rb1] | activated the estrogen receptors to some extent | – | slightly increased the activity of ERα | – | – |
| CC(C)=CCC[C@](C)(O)[C@H]1CC[C@]2(C)[C@@H]1[C@H](O)C[C@@H]1[C@@]3(C)CC[C@H](O[C@@H]4O[C@H](CO)[C@@H](O)[C@H](O)[C@H]4O[C@@H]4O[C@H](CO)[C@@H](O)[C@H](O)[C@H]4O)C(C)(C)[C@@H]3CC[C@]12C [Rg3, Ginsenoside Rg3, reference compound] | activated the estrogen receptors to some extent | – | – | activated the estrogen receptors to some extent | – |
